In patent publication US12076332B2, “Treatment of lysosomal storage disorders” (The Regents of the University of California, priority 2018, dated 2024):
Entries after “also recorded” stand apart in the source; their conditions may differ.

Tests used:
[1] = system: WT mice; conditions: daily s.c. injection for 4.5 months
Source text: Panel C) IHC anti-Lamp-on brain sagittal sections derived from the four experimental groups of mice (WT saline-injected, WT CLR01-injected, MPS-IIIA-saline injected and MPS-IIIA CLR01-injected). Images from cerebral cortex shown. Lamp 1 immuno-reactivity quantified in 10 different fields from the cortical regions for each group. Three mice for each experimental group. ***p<0.001 vs WT; ###P<0.001 vs MPS-IIIA+saline, One-way ANOVA analysis with Bonferroni's multiple comparison test. Panels D and E) TEM analysis to quantify the number/size of lysosomes in the four experimental group of mice. Three mice for each experiment group. Representative TEM images were shown on the left panel. *, **, *** p<0.05, 0.01, 0.001 vs WT; ##, ###, P<0.01, 0.001 vs MPS-IIIA+saline, One-way ANOVA analysis with Bonferroni's multiple comparison test.

[2] = system: WT mice; test: Anti-LC3 immunofluorescence on brain sections of WT mice; type: in vivo, mouse; conditions: CLR01-treated WT mice
Source text: (§1) FIG. 9. Panels A and B, show anti-LC3 immunofluorescence on brain sagittal sections from the four experimental groups of mice. The number of LC3-positive dots (either total or large dots) were quantified in 15 different fields from the cortical regions for each group. Three mice for each experimental group. […] Panel C) Immunofluorescence analysis of colocalization in MPS-IIIA mice brain sagittal sections between LC3 (green) and Lamp1 (red), LC3 (green) and Neurofilament (red). […] Images from cerebral cortex shown.
(§2) Medial sagittal sections of frozen brain tissue were cut on a cryostat at either 12 or 40 μm of thickness, permeabilized (PBS, 0.2% Tween[…]20, and 10% fetal bovine serum), and stained with appropriate primary and secondary antibodies overnight at […] Sections were analyzed by Confocal microscope Zeiss LSM 710 using either 63× or 40× objectives. Stained sections were mounted with Vectashield (Vector Laboratories, CA, USA).
(§3) To evaluate whether the normalization of the lysosomal compartment mediated by amyloid deposition inhibition was also associated to a functional recovery of lysosomes, the ALP was analyzed in MPS-IIIA mouse brain upon CLR01 treatment. […]

[3] = system: MPS-IIIA mice; test: Thioflavin S staining of amyloid deposits in brain sections; type: in vivo, mouse
Source text: CLR01 was produced in the facility of Professor Gal Bitan (Associate Professor of Neurology, Department of Neurology, University of California, UCLA). […] […] CLR01 dosage has been chosen on the basis of safety and pharmacological characterization of CLR01 in mice (Attar et al. (2014) BMC Parmacol. & Toxicol 15: 23).
After euthanization, mouse brain was collected from each experimental group and perfused with phosphate-buffered saline (PBS pH 7,4) to completely clear blood from tissue. The brains were divided in two equal parts: half of each was frozen in dry ice and used for biochemical analysis. The other halves were fixed in 4% (w/v) paraformaldehyde in PBS and embedded in Optimal cutting temperature compound (OCT compound) or paraffin.
For thioflavin S histochemistry were used cryosections (12 μm), then sections were incubated in 0.1% thioflavin S for 10 min. Slides were immersed to 80% ethanol solution for 5 min, and mounted using FLUORSAVE™ reagent. Positive staining was observed using a Leica DM5500 scan.
The inventors therefore tested whether CLR01 (FIG. 4, panel A), was effective in targeting and destroying amyloid aggregation in MPS IIIA mice. […] Both treatments ended at 7 months of age, when the neuropathological phenotype becomes evident in MPS-IIIA mice (Lau et al. (2008) Behav. Brain Res. 191: 130-136; Sambri et al. (2016) EMBO Mol. Med. e201606965; Sorrentino et al. (2013) EMBO Mol. Med. 5: 675-690; Wilkinson et al. (2012) PloS one, 7: e35787). The two different treatment regimens allowed evaluation of the potential therapeutic effect of CLR01 resulting from either prevention or disassembly of amyloid aggregation.
The potential therapeutic efficacy of CLR01 in MPS-IIIA was further tested by treating MPS-IIIA mice at 4.5 months of age (before massive amyloid aggregation takes place) with daily sub-cutaneous injection of CLR01 over a period of 4.5 months.

[4] = system: MPS-IIIA mice; test: Anti-LC3 immunofluorescence on brain sections; type: in vivo, mouse
Source text: FIG. 9. Panels A and B, show anti-LC3 immunofluorescence on brain sagittal sections from the four experimental groups of mice. The number of LC3-positive dots (either total or large dots) were quantified in 15 different fields from the cortical regions for each group. Three mice for each experimental group. […] Panel C) Immunofluorescence analysis of colocalization in MPS-IIIA mice brain sagittal sections between LC3 (green) and Lamp1 (red), LC3 (green) and Neurofilament (red). […] Panel E) Immunohistochemistry analysis of anti-Ubiquitin K63 signal on brain sagittal sections derived from the four experimental groups of mice. Images from cerebral cortex shown. UbK63 immuno-reactivity quantified in 10 different fields from the cortical regions from each group.
as §2
In healthy neurons autophagosomes are efficiently cleared upon axonal retrograde transport and lysosomal encountering and, therefore, are rarely found in neurites or cell bodies unless lysosomal-dependent autophagosome clearance is disrupted (Boland et al. (2008) J. Neurosci. 28: 6926-6937; Maday et al. (2012) J. Cell Biol. 196: 407-417; Lie & Nixon (2019) Neurobiol. Dis. 122: 94-105).

[5] = system: MPS-IIIA mice; test: GFAP and IBA1 staining of neuro-inflammation in brain; type: in vivo, mouse
[6] = system: MPS-IIIA mice; test: IHC anti-LAMP1 on brain sections; type: in vivo, mouse; conditions: daily s.c. injection for 4.5 months
Experimental: (§4) FIG. 8. […] Images from cerebral cortex shown. […] Three mice for each experiment group.
(§5) For paraffin embedding, mice brain were fixed in 4% paraformaldehyde (PFA) overnight at 4° C., then mice brain were dehydrated in a graded series of ethanol, cleared with xylene, and infiltrated with paraffin. Paraffin-embedded blocks were cut on a microtome in 6-μm sagittal sections. Immunohistochemistry experiments were […] performed using the Universal Vectastain Elite ABC HRP Kit (PK6200, Vector Laboratories). For all immunostainings were used sagittal sections, rinsed in PBS1×-Triton 0.1% and treated with 1% H2O2 for 30 min to quench endogenous peroxidase activity. At this point the sections were exposed at PBS or at Proteinase K digestion (50 μg/ml) for 2 minutes at 37° C. to detect protease resistant structures. After this point the sections were blocked for 1 hour in PBS1×-TritonX-100 0.1%-2% Horse Serum and then incubated with specific antibodies overnight at […], followed by incubation in biotinylated universal antibody (Vector Laboratories) for 90 minutes at room temperature and in ABC reagent (Vector Laboratories) for 45 minutes at room temperature. Sections were dehydrated and then mounted with Leica CV ULTRA (Leica micro systems). Visualization was performed using 3,3-diaminobenzidine tetrahydrochloride (DAB Vector Laboratories). […]

[7] = system: MPS-IIIA mice; test: IHC anti-UbK63 on brain sections; type: in vivo, mouse; conditions: CLR01-treated MPS-IIIA brain vs control MPS-IIIA brain
Source text: as §1
For paraffin embedding, mice brain were fixed in 4% paraformaldehyde (PFA) overnight at 4° C., then mice brain were dehydrated in a graded series of ethanol, cleared with xylene, and infiltrated with paraffin. Paraffin-embedded blocks were cut on a microtome in 6-μm sagittal sections. Immunohistochemistry experiments were […] performed using the Universal Vectastain Elite ABC HRP Kit (PK6200, Vector Laboratories). For all immunostainings were used sagittal sections, rinsed in PBS1×-Triton 0.1% and treated with 1% H2O2 for 30 min to quench endogenous peroxidase activity. […]
as §3

[8] = system: WT mice; test: Lysosomal autophagic axis in WT mice; type: in vivo, mouse; conditions: WT mice upon treatment
Source text: Therefore, the present data support a model in which progressive amyloid build-up into lysosomes impairs autophagic flux. Mechanisms underlying such effect involve the negative impact of amyloids on autophagosome clearance through the prevention of lysosome encountering. […] This might be a consequence of the relief of the autophagy block and/or might be a result of a more specific effect of CLR01 on lysosomal-mediated signaling pathways inducing ALP, signaling that may be impaired by amyloid deposition in MPS-IIIA.

[9] = system: MPS-IIIA mice; test: TEM analysis of number/size of lysosomes; type: in vivo, mouse
Source text: as §4

[10] = systemic administration; cited from earlier work
[11] = system: MPS-IIIA mice; conditions: mouse, in vivo, sc, 1 mg/kg/day
[12] = system: MPS-IIIA mice; test: Western blot of LC3-II and p62 on brain lysates; type: in vivo, mouse
[13] = system: WT mice; conditions: daily s.c. injection for 4.5 months; remark: listed apart in the source
[14] = system: mouse models of synucleinopathies and Alzheimer's disease; conditions: cited from earlier work
[15] = system: MPS-IIIA mice; conditions: MPS-IIIA mouse brain, daily s.c. injection for 4.5 months, 9 months of age
Source text: Panel B) TEM analysis of synaptic vesicles number. […] The arrows indicate the synaptic cleft. ***p<0.0001 vs WT+Saline; ###p<0.0001 vs MPS-IIIA+saline, One-way ANOVA analysis with Bonferroni's multiple comparison test.

[16] = systemic administration, mice; cited from earlier work
[17] = system: WT mice; test: IHC anti-LAMP1 on brain sections of WT mice; type: in vivo, mouse; conditions: daily s.c. injection for 4.5 months
Experimental: as §4, §5

[18] = system: MPS-IIIA mice; test: Contextual fear conditioning test; type: in vivo, mouse; conditions: daily s.c. injection for 4.5 months, 9 months of age
Source text: FIG. 7. […] Panel B) TEM analysis of synaptic vesicles number. […] Panel C) Contextual fear condition task.

[19] = CLR01-treated MPS-IIIA brain vs WT
[20] = MPS-IIIA brain, daily s.c. injection for 4.5 months
[21] = MPS-IIIA brain lysates, CLR01 vs saline

With `O=P(O)(O)Oc1c2c(c(OP(=O)(O)O)c3c1C1CC3c3cc4c(cc31)C1CC4c3ccccc31)C1CC2c2cc3c(cc21)C1CC3c2ccccc21` [CLR01] the lysosome size/number [1] was “did not affect lysosome size/number”, the LC3 staining [2] was “a significant change in LC3 staining was observed” and the “thioflavin-positive inclusions / amyloid deposition in brain” value ([3]; MPS-IIIA mice, daily s.c. injection for 4.5 months from 4.5 months of age, analysed at 9 months) was “reduction of amyloid deposition; also recorded: almost complete absence of thioflavin-positive inclusions”. For the same compound, the “amyloid proteins by Thioflavin S staining” value ([3]; asymptomatic MPS-IIIA mice, 1 mg/kg/day s.c. osmotic pump, 2 months from 5 months of age, analysed at 7 months) was “complete disappearance of amyloid proteins”, the “amyloid deposits by Thioflavin S staining in different brain regions” value ([3]; symptomatic MPS-IIIA mice, 1 mg/kg/day s.c. osmotic pump, 1 month from 6 months of age, analysed at 7 months) was “partial removal of amyloid deposits” and the “number of LC3 dots (both large and normal sized) compared to WT brain” value [4, 19] was “remained significantly higher compared to WT brain”. The “autophagic flux / autophagy block” value ([4]; MPS-IIIA brain, conclusion from LC3 dots) was “autophagic flux was re-activated; also recorded: able to relief autophagy block”, the “large LC3 dots (>0.8 μm^2)” value ([4]; MPS-IIIA brain, cortical regions, daily s.c. injection for 4.5 months) was “significantly reduced large LC3 dots” and the “neuroinflammatory markers GFAP and IBA1, immunofluorescence” value ([5]; 2 months of treatment, at 7 months of age) was “strong reduction of inflammation”. The “neuro-inflammation by GFAP and Iba1 IHC, cortex and striatum” value ([5]; daily s.c. injection for 4.5 months, 9 months of age) was “reduction in both inflammatory markers; also recorded: strongly reduced neuro-inflammation”, the “LAMP1-positive immunostaining, cerebral cortex” value [6] was “markedly reduced LAMP1-positive immunostaining” and the “UbK63 IHC signal, cerebral cortex” value [7] was “significant signal reduction”. For the same compound, the lysosomal autophagic axis [8] was “no significant change in lysosomal autophagic axis”, the “total number of lysosomes” value ([9]; CLR01-treated MPS-IIIA brain vs control MPS-IIIA mice) was “remained significantly higher than control MPS-IIIA mice” and the “average lysosomal size (EM)” value [9, 20] was “significant reduction in the average lysosomal size”. For the same compound, the “number of abnormal-sized lysosomes (>800 nm)” value [9, 20] was “decreased number of abnormal-sized lysosomes”, the “brain targeting / blood-brain barrier crossing” value [10] was “cross the blood-brain barrier” and the “build-up of amyloid components (α-Synuclein, PrP, Aβ1-42, Tau), proteinase K-resistant” value [11] was “efficient inhibition of the build-up of several amyloid components”. For the same compound, the “LC3-II levels compared to WT” value [12, 19] was “remained significantly higher than WT”, the “LC3-II protein level (Western blot, normalized to β-actin)” value [12, 21] was “reduction; also recorded: damped down” and the “p62 protein level (Western blot, normalized to β-actin)” value [12, 21] was “reduction; also recorded: damped down”. The “inflammatory response by GFAP and Iba1 IHC” value [13] was “did not elicit inflammatory response”, the “protection against protein aggregation and neurodegeneration” value [14] was “very effective in protecting against protein aggregation and neurodegeneration” and the “synaptic abnormalities (synaptic vesicles/synaptic cleft length ratio, TEM)” value [15] was “able to rescue synaptic abnormalities”. For the same compound, the safety margin [16] was “high safety margin”, the LAMP1 compartment volume [17] was “did not modify LAMP1 compartment volume” and the “memory deficit (freezing time, contextual fear conditioning)” value [18] was “rescue of memory deficits; also recorded: fully rescued”.
